Source: patent publication EP4778516A1, “CALCIFICATION ENHANCER FOR OSTEOBLAST MC3T3-E1 CELL” (Watanabe Oyster Laboratory Co., Ltd., priority 2023, dated 2025)
Read-outs that look alike come from different tables or passages of the source.

Legend:
[1] = test system: bone-metastatic prostate cancer cells; conditions: earlier demonstration by the present inventors; cited from earlier work
NF-kB p65 = test: Western blotting of cell lysates; assay type: cell-based, mouse; conditions: 3 days
Method: MC3T3-E1 cells (1×10^6 cells in 10 ml medium in a 100-mm dish) were cultured for 3 days in a-MEM containing 10% FBS and 1% P/S in the presence of a reagent vehicle (1% ethanol as final concentration), DHMBA (10 mM), TNF-a (10 ng/ml medium), or DHMBA (10 mM) in combination with TNF-a (10 ng/ml). After culture, the dishes were washed three times with cold PBS (10 ml), and adherent cells were removed from the dishes by scraping in Cell Lysis Buffer (Cell Signaling Technology, Inc., Danvers, MA, USA). Protein samples obtained from the cell lysates were loaded ([…] per lane) and separated by SDS-polyacrylamide gel electrophoresis (12% SDS-PAGE), as previously described. After electrophoresis, the membranes were incubated overnight at 4°C with primary antibodies (each diluted 1:1,000) against target proteins NF-kB p65 (catalog no. 3034, rabbit) and b-actin (catalog no. 3700, mouse). […] Protein bands were then detected using a chemiluminescent substrate (catalog no. 34577, Thermo Fisher Scientific Inc., Rockford, IL, USA) on X-ray film. A total of four films obtained from four independent experiments using separate membranes were scanned using an Epson Perfection 1660 Photo scanner, and band intensities were quantified using ImageJ2 software (National Institutes of Health, Bethesda, MD, USA).

MC3T3-E1 cells = test: Crosstalk (Transwell co-culture) between MC3T3-E1 cells and RAW264.7 cells; assay type: cell-based, mouse; conditions: DHMBA 1 or 10 mM
Method: To investigate crosstalk between osteoblast MC3T3-E1 cells and macrophage RAW264.7 cells, an assay was performed using Transwell chambers (Corning Inc., Life Sciences, catalog no. CLS3464-48EA, USA) equipped with a polycarbonate filter (pore size […], diameter 6.5 mm). MC3T3-E1 cells (1×10^5 cells per 1 ml medium) were added in a-MEM medium (1 ml) containing 10% FBS and 1% P/S in the lower chamber. RAW264.7 cells were suspended in DMEM containing 10% FBS and 1% P/S, and 0.5 ml of the suspension (5×10^4 cells/ml medium) was added to the upper chamber of each Transwell. RAW264.7 cells were incubated at 37°C for 1 hour under 5% CO2 and 95% air to allow attachment to the upper chamber. The plates equipped with the Transwell chambers were then placed in an incubator at 37°C under 5% CO2 and 95% air. To induce inflammatory conditions in RAW264.7 cells, LPS (100 ng/ml medium) was added to the upper chamber containing RAW264.7 cells. […] MC3T3-E1 cells attached to the dishes (wells) were counted as described in the section "Cell proliferation assay". […]
Thereafter, a Transwell chamber was placed in each culture well, and RAW264.7 cells were added to the upper chamber at 0.5 ml (5×10^4 cells/ml medium), in the presence or absence of LPS (100 ng/ml medium). […] Cells attached to the dishes (wells) were counted as described in the section "Cell proliferation assay".

[2] = cited from earlier work; for peroxyl radical scavenging activity relative to Trolox: greater than Trolox

SMILES: COc1c(O)cc(CO)cc1O [DHMBA, 3,5-dihydroxy-4-methoxybenzyl alcohol]
- metastatic activity of bone-metastatic prostate cancer cells [1]: suppressive effects
- proliferation of bone-metastatic prostate cancer cells [1]: suppressive effects
- expression level of NF-kB p65 in MC3T3-E1 cells (NF-kB p65; DHMBA 10 mM, without TNF-a, Figs. 8A and 8B): reduced
- TNF-a-induced increase of the level of NF-kB p65 (NF-kB p65; TNF-a 10 ng/ml plus DHMBA 10 mM, Fig. 8A and 8B): suppressed
- decrease of proliferation of MC3T3-E1 cells by co-culture with RAW264.7 cells (MC3T3-E1 cells; LPS 100 ng/ml in upper chamber, 3 days, Fig. 5C): suppressed
- enhancement of death of MC3T3-E1 cells by co-culture with RAW264.7 cells (MC3T3-E1 cells; LPS 100 ng/ml, 48 hours, Fig. 5D): prevented
- reaction with HOO(•) ([2]; compared with other known antioxidants such as resveratrol and ascorbic acid): more rapidly
- peroxyl radical scavenging activity relative to Trolox ([2]; in aqueous media): four orders of magnitude
- peroxyl radical scavenging activity relative to Trolox ([2]; in lipid media): approximately 15 fold
